Measurements as given in PubChem BioAssay AID1963862 (Molecular Pharmacology Branch, DTP, NCI, 2024).

Tested on: KRAS patient-derived spheroids with HUVEC/MSC, viability
Assay: Anticancer human tumor 941728-121-R-J1-PDC patient-derived lung adenocarcinoma cell line growth inhibition [KRAS2]
Conditions: for IC50: curve of first compound; for viability, T/C: stronger effect = lower value
Excerpt: Multicellular complex tumor spheroid response to RAS pathway inhibitors in combination with a targeted agents in patient-derived cell lines with oncogenic KRAS variants from multiple cancer types
A high-throughput screen of multi-cell type tumor spheroids was designed to identify active combinations of targeted small molecules and KRAS pathway inhibitors. Complex spheroids include a stromal component modeled by human endothelial cells (HUVEC) and fibroblasts modeled by human mesenchymal stem cells (MSCs). The concentration ranges selected for each drug and investigational agent were based upon clinically achievable concentrations if the clinical Cmax of the agent was known.
Compounds. The drugs and investigational agents: BI-3406 (NSC825286), BAY-293 (NSC824723), batoprotafib (TNO155; NSC825523), sotorasib (AMG 510; NSC818433), MRTX1257 (NSC819558), elimusertib (BAY 1895344; NSC800525), molibresib (GSK525762; NSC774829), temuterkib (LY3214996; NSC803410), venetoclax (NSC766270), alisertib (NSC759677), olaparib (NSC753686), talazoparib (NSC767125), erdafitinib (NSC781556), ipatasertib (NSC767898), cabozantinib (NSC761068), nintedanib (NSC756659), abemaciclib (NSC768073), docetaxel (NSC628503), trametinib (NSC758246), and sapanisertib (NSC764658) were obtained from the National Cancer Institute (NCI) Developmental Therapeutics Program Chemical Repository. The FDA-approved anticancer drug set is available from the Developmental Therapeutics Program. […] The stock solutions were prepared in dimethyl sulfoxide (DMSO, Sigma-Aldrich, St. Louis, MO, cat. D2650) at 800-fold the tested concentration and stored at -70 degrees C prior to their use. All drugs and investigational agents were tested over a range starting from a high concentration at or near the clinical Cmax and decreasing in half-log increments. If the clinical Cmax for an agent had not been determined, the highest concentration tested was 10 microM.
Cell Culture. All cells were maintained in an incubator at 37 degrees C and 5% CO2 with 95% humidity. The PDC lines were cultured according to standard operating procedures established by the NCI PDMR (https://pdmr.cancer.gov/sops/default.htm). Briefly, all PDCs were thawed and cultured in Matrigel-coated flasks prepared with a working solution of 1X Ham's F-12 nutrient mix, without supplementation (Invitrogen, Waltham, MA, cat. 11765054), 100 U/mL penicillin-streptomycin (Invitrogen, cat. 15140122), and 2.5% Matrigel (Corning Inc., Corning, NY, cat. 354248) for the first three passages. All PDCs were cultured in complete DMEM/F-12 media containing advanced DMEM/F-12 (Invitrogen, cat. 12634028), 4.9% defined fetal bovine serum, heat inactivated (HyClone Laboratories Inc., Logan, UT, cat. SH30070.03HI), 389 ng/mL hydrocortisone (Sigma-Aldrich, cat. H4001), 9.7 ng/mL human EGF recombinant protein (Invitrogen, cat. PHG0313), 23.4 microg/mL adenine (Sigma-Aldrich, cat. A2786), 97.3 U/mL penicillin-streptomycin (Invitrogen, cat. 15140122), 1.9 mM L-glutamine (Invitrogen, cat. 25030081), and 9.7 microM Y-27632 dihydrochloride (Tocris Bioscience, Bristol, United Kingdom, cat. 1254). The PDCs were cultured in complete DMEM/F12 media without 9.7 microM Y-27632 dihydrochloride for at least two passages prior to the screen. The established cell line HOP-62 was cultured in RPMI 1640 medium, HEPES (Invitrogen, cat. 22400105) with 10% defined fetal bovine serum (HyClone Laboratories Inc., cat. SH30070.03) and 2 mM L-glutamine (Invitrogen, cat. 25030081). The pooled donor HUVEC were cultured in endothelial cell growth medium 2 (PromoCell, Heidelberg, Germany, cat. C-22011) and the hMSC were cultured in mesenchymal stem cell growth medium 2 (PromoCell, cat. C-28009). For all experiments, HUVEC and hMSC were used at passages </=5, while the malignant cell lines were used at passages </=15. […]

[1] = second compound 0.1 µM, first compound 0.0316 µM
[2] = second compound 0.1 µM, first compound 0.1 µM
[3] = second compound 0.1 µM, first compound 0.316 µM
[4] = second compound 0.1 µM, first compound 1 µM
[5] = second compound 0.316 µM, first compound 0.0316 µM
[6] = second compound 0.316 µM, first compound 0.1 µM
[7] = second compound 0.316 µM, first compound 0.316 µM
[8] = second compound 0.316 µM, first compound 1 µM
[9] = second compound 1 µM, first compound 0.0316 µM
[10] = second compound 1 µM, first compound 0.1 µM
[11] = second compound 1 µM, first compound 0.316 µM
[12] = second compound 1 µM, first compound 1 µM
[13] = second compound 3.16 µM, first compound 0.0316 µM
[14] = second compound 3.16 µM, first compound 0.1 µM
[15] = second compound 3.16 µM, first compound 0.316 µM
[16] = second compound 3.16 µM, first compound 1 µM
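Note: spheroids exposed to agents for seven days before readout.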

Row | Structure (SMILES) | IC50 (second compound 0.1 µM) | IC50 (second compound 0.316 µM) | IC50 (second compound 1 µM) | IC50 (second compound 3.16 µM) | viability, T/C [1] | viability, T/C [2] | viability, T/C [3] | viability, T/C [4] | viability, T/C [5] | viability, T/C [6] | viability, T/C [7] | viability, T/C [8] | viability, T/C [9] | viability, T/C [10] | viability, T/C [11] | viability, T/C [12] | viability, T/C [13] | viability, T/C [14] | viability, T/C [15] | viability, T/C [16] | further results
1 | CCN1CCN(Cc2ccc(Nc3ncc(F)c(-c4cc(F)c5nc(C)n(C(C)C)c5c4)n3)nc2)CC1 + C=CC(=O)N1CCN(c2nc(=O)n(-c3c(C)ccnc3C(C)C)c3nc(-c4c(O)cccc4F)c(F)cc23)C(C)C1 | < 3.16 nM | < 3.16 nM | < 3.16 nM | < 3.16 nM | 16.5% | 15.9% | 15.1% | 18.5% | 17.1% | 16.8% | 14.7% | 15.9% | 19.5% | 17.1% | 17.2% | 19.8% | 19.6% | 18.9% | 21.9% | 19.2% | IC50 (second compound 10 µM): < 3.16 nM; viability, T/C (second compound 0.1 µM, first compound 0.00316 µM): 17.4%; viability, T/C (second compound 0.1 µM, first compound 0.01 µM): 18.3%; viability, T/C (second compound 0.316 µM, first compound 0.00316 µM): 19.1%; viability, T/C (second compound 0.316 µM, first compound 0.01 µM): 18.1%; viability, T/C (second compound 1 µM, first compound 0.00316 µM): 22.2%; viability, T/C (second compound 1 µM, first compound 0.01 µM): 22.2%; viability, T/C (second compound 3.16 µM, first compound 0.00316 µM): 22.7%; viability, T/C (second compound 3.16 µM, first compound 0.01 µM): 24.2%; viability, T/C (second compound 10 µM, first compound 0.00316 µM): 27.8%; viability, T/C (second compound 10 µM, first compound 0.01 µM): 29.9%; viability, T/C (second compound 10 µM, first compound 0.0316 µM): 25%; viability, T/C (second compound 10 µM, first compound 0.1 µM): 29.8%; viability, T/C (second compound 10 µM, first compound 0.316 µM): 27.9%; viability, T/C (second compound 10 µM, first compound 1 µM): 16.3%
2 | CC1OCC2(CCN(c3cnc(Sc4ccnc(N)c4Cl)c(N)n3)CC2)C1N (stereo not given) + C=CC(=O)N1CCN(c2nc(OCC3CCCN3C)nc3c2CCN(c2cccc4cccc(C)c24)C3)CC1CC#N | < 31.6 nM | < 31.6 nM | < 31.6 nM | < 31.6 nM | 31.4% | 28.9% | 25.6% | 26.3% | 32.8% | 30.8% | 28% | 26.9% | 32.8% | 34.8% | 32.7% | 28.2% | 4.61% | 10.1% | 4.45% | 4.43% | IC50 (second compound 0.0316 µM): < 31.6 nM; viability, T/C (second compound 0.0316 µM, first compound 0.0316 µM): 32.3%; viability, T/C (second compound 0.0316 µM, first compound 0.1 µM): 28.9%; viability, T/C (second compound 0.0316 µM, first compound 0.316 µM): 25.4%; viability, T/C (second compound 0.0316 µM, first compound 1 µM): 26.4%; viability, T/C (second compound 0.0316 µM, first compound 3.16 µM): 23.6%; viability, T/C (second compound 0.0316 µM, first compound 10 µM): 18.4%; viability, T/C (second compound 0.1 µM, first compound 3.16 µM): 25.4%; viability, T/C (second compound 0.1 µM, first compound 10 µM): 20.6%; viability, T/C (second compound 0.316 µM, first compound 3.16 µM): 25.1%; viability, T/C (second compound 0.316 µM, first compound 10 µM): 23.7%; viability, T/C (second compound 1 µM, first compound 3.16 µM): 29.1%; viability, T/C (second compound 1 µM, first compound 10 µM): 28.4%; viability, T/C (second compound 3.16 µM, first compound 3.16 µM): 4.99%; viability, T/C (second compound 3.16 µM, first compound 10 µM): 9.3%
